pKi: −log10 of the molar value. Where a name gives a salt, the structure may show the parent alone.
Experiments:
[1] = molecular target: muscarinic M2 receptor (Homo sapiens, UniProt P08172); experiment: Equilibrium receptor binding, recombinant human receptor; parameters: expressed in transfected cells
[2] = molecular target: T1, 5-HT1A receptor (Homo sapiens, UniProt P08908); experiment: as above
T1 construct: expressed in transfected cells
T1 sequence (P08908 1-422): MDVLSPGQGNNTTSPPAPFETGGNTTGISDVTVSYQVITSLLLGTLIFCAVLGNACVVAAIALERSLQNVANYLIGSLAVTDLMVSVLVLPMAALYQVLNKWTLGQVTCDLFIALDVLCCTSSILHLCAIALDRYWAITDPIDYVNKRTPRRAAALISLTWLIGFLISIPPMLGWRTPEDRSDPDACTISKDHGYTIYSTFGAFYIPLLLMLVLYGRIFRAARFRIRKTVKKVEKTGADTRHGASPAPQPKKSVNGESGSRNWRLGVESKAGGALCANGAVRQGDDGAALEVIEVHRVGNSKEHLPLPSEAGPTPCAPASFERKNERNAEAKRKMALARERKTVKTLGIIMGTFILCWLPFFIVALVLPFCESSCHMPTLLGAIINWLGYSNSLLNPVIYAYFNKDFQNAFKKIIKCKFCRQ

[3] = Stress stability at 50° C., purity profile; assay type: physicochemical
Procedure: In order to evaluate the stability of the formulations described above, prototype A, B, C, D were maintained under the 50° C. stress condition for 30 days.

[4] = molecular target: T2, 5-HT2C receptor (Homo sapiens, UniProt P28335); experiment: Equilibrium receptor binding, recombinant human receptor
T2 construct: expressed in transfected cells
T2 sequence (P28335 33-458): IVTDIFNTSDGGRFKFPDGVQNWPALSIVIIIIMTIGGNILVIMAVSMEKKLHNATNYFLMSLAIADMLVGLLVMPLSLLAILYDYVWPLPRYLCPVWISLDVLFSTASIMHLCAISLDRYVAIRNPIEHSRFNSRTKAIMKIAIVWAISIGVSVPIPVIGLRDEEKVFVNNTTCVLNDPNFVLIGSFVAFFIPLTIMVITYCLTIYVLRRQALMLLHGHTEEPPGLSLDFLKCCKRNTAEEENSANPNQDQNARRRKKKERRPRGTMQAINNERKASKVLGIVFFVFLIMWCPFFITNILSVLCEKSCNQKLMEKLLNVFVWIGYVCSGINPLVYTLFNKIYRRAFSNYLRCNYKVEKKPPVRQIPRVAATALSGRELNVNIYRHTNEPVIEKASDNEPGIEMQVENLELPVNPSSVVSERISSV

[5] = molecular target: T3, adrenergic alpha-2C receptor (Alpha2C) (Homo sapiens, UniProt P18825); experiment: as above
T3 construct: expressed in transfected cells
T3 sequence (P18825 1-462): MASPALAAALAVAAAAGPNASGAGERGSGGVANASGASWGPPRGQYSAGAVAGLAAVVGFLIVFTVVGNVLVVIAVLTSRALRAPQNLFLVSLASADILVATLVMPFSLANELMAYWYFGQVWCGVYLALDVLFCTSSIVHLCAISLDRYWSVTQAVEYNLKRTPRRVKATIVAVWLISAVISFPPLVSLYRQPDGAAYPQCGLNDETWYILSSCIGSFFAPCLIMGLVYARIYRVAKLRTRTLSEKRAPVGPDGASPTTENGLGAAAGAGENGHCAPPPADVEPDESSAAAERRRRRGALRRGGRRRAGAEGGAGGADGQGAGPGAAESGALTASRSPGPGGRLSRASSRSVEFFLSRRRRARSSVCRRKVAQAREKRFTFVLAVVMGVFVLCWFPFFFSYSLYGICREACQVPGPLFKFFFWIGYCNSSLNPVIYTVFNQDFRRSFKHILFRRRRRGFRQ

[6] = molecular target: T4, adrenergic alpha-2A receptor (Alpha2A) (Homo sapiens, UniProt P08913); experiment: as above
T4 construct: expressed in transfected cells
T4 sequence (P08913 1-465): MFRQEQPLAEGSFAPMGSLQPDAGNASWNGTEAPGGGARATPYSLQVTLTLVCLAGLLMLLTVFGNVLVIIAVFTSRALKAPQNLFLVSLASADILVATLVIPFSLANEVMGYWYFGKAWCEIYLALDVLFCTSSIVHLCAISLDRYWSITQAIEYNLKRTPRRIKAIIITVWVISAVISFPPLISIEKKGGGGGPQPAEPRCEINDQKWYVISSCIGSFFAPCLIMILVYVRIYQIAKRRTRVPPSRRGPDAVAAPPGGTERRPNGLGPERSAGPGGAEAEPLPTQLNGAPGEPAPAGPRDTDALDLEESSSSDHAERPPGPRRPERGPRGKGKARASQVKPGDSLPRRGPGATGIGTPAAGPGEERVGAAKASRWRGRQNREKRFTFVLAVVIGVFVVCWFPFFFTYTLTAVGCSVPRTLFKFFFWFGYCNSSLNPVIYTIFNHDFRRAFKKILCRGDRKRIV

[7] = T0, samples stored at room temperature
[8] = T15days, active ingredient without excipients

Chain of muscarinic M2 receptor (P08172 whole entry): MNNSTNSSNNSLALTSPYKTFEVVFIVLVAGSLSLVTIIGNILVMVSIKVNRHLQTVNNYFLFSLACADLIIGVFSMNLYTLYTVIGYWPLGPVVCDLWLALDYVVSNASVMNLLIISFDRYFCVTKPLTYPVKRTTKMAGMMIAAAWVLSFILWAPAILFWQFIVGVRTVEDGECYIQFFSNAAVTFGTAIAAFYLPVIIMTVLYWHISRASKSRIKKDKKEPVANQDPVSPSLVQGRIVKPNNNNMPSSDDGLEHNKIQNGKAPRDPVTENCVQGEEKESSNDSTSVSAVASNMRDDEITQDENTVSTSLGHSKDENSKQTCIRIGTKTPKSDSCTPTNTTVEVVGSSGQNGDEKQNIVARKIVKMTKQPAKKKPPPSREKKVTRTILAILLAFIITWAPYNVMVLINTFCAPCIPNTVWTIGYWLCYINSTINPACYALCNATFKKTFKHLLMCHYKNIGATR

| pKi [1] | SMILES | pKi [2] | Impurity 1 (Dibenzosuberenone, RT = about 56′) [3, 7] | Impurity 2 (Carbinole, RT = about 6′) [3, 7] | Impurity 4 (Amitriptyline, RT = about 15′) [3, 7] | Total Impurities [3, 7] [%] | Unknown 1 (RT = about 16′) [3, 7] [%] | Unknown 2 (RT = about 17.5′) [3, 7] | Unknown 3 (RT = about 7.5′) [3, 7] | Impurity 1 (Dibenzosuberenone, RT = about 56′) [3, 8] | Impurity 2 (Carbinole, RT = about 6′) [3, 8] | Impurity 4 (Amitriptyline, RT = about 15′) [3, 8] | Total Impurities [3, 8] [%] | Unknown 1 (RT = about 16′) [3, 8] | Unknown 2 (RT = about 17.5′) [3, 8] [%] | Unknown 3 (RT = about 7.5′) [3, 8] | pKi [4] | pKi [5] | pKi [6] |
| --- | --- | --- | --- | --- | --- | --- | --- | --- | --- | --- | --- | --- | --- | --- | --- | --- | --- | --- | --- |
| 6.85 | CNCCC=C1c2ccccc2CCc2ccccc21 [nortriptyline] | 7.00 | – | – | – | – | – | – | – | – | – | – | – | – | – | – | – | – | – |
| – | CN(C)CCC=C1c2ccccc2C=Cc2ccccc21 [Cyclobenzaprine HCl (Dipharma)] | – | Absent | Absent | Absent | 0.005 | 0.005 | Absent | 0.028% | Absent | Absent | Absent | 0.003 | Absent | 0.003 | 0.008% | – | – | – |
| – | CN(C)CCC=C1c2ccccc2C=Cc2ccccc21 [Cyclobenzaprine HCl (Sifavitor)] | – | Absent | Absent | Absent | 0.020 | 0.020 | Absent | Absent | Absent | Absent | Absent | 0.019 | Absent | 0.019 | Absent | – | – | – |
| – | CN(C)CCC=C1c2ccccc2CCc2ccccc21 [amitriptyline, 3-(10,11-dihydro-5H-dibenzo [a,d]cycloheptene-5-ylidene)-N,N-dimethyl-1-propanamine] | 6.66 | – | – | – | – | – | – | – | – | – | – | – | – | – | – | 7.55 | 7.85 | 6.60 |

— US20260232578A1, “COMPOSITIONS AND METHODS FOR TRANSMUCOSAL ABSORPTION” (Tonix Pharma Limited, priority 2012, published 2026)
